Data as given in PubChem BioAssay AID248 (DTP/NCI, 2004).
Several values for one entry are separate records, joined by “and”; a condition that tells them apart may be missing. Equal values may be shown once. Toxic doses and inconclusive results are not listed. Cut-off read from the data, not from the text of the source: active = T/C of 150% or more; inactive = T/C below 125%.

Test system: L1210 leukemia ip in BDF1 mice, survival T/C
Test: NCI In Vivo Anticancer Drug Screen. Data for tumor model L1210 Leukemia (intraperitoneal) in B6D2F1 (BDF1) mice
Details: endpoint: mean survival time, higher = longer survival
How it was run: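 Transplantable tumor model; survival measured in treated vs vehicle control mice. Value = treated/control.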

[1] = dose: 100.0 mg/kg/injection, schedule: Q04DX003 (ip), vehicle: Klucel (hydroxypropylcellulose) (HPC)
[2] = dose: 200.0 mg/kg/injection, schedule: Q04DX003 (ip), vehicle: Klucel (hydroxypropylcellulose) (HPC)
[3] = dose: 400.0 mg/kg/injection, schedule: Q04DX003 (ip), vehicle: Klucel (hydroxypropylcellulose) (HPC)
[4] = dose: 100.0 mg/kg/injection, schedule: Q01DX009 (ip), vehicle: saline with Tween-80
[5] = dose: 100.0 mg/kg/injection, schedule: Q04DX003 (ip), vehicle: saline with Tween-80
[6] = dose: 200.0 mg/kg/injection, schedule: Q01DX009 (ip), vehicle: saline with Tween-80
[7] = dose: 200.0 mg/kg/injection, schedule: Q04DX003 (ip), vehicle: saline with Tween-80
[8] = dose: 400.0 mg/kg/injection, schedule: Q04DX003 (ip), vehicle: saline with Tween-80
[9] = dose: 100.0 mg/kg/injection, schedule: Q01DX009 (ip), vehicle: saline
[10] = dose: 100.0 mg/kg/injection, schedule: Q04DX003 (ip), vehicle: saline
[11] = dose: 200.0 mg/kg/injection, schedule: Q01DX009 (ip), vehicle: saline
[12] = dose: 200.0 mg/kg/injection, schedule: Q04DX003 (ip), vehicle: saline
[13] = dose: 400.0 mg/kg/injection, schedule: Q04DX003 (ip), vehicle: saline
[14] = dose: 400.0 mg/kg/injection, schedule: Q01DX009 (ip), vehicle: saline with Tween-80
[15] = dose: 25.0 mg/kg/injection, schedule: Q01DX001 (ip), vehicle: Klucel (hydroxypropylcellulose) (HPC)
[16] = dose: 50.0 mg/kg/injection, schedule: Q01DX001 (ip), vehicle: Klucel (hydroxypropylcellulose) (HPC)
[17] = dose: 100.0 mg/kg/injection, schedule: Q01DX001 (ip), vehicle: Klucel (hydroxypropylcellulose) (HPC)
[18] = dose: 50.0 mg/kg/injection, schedule: Q01DX009 (ip), vehicle: Klucel (hydroxypropylcellulose) (HPC)
[19] = dose: 100.0 mg/kg/injection, schedule: Q01DX009 (ip), vehicle: Klucel (hydroxypropylcellulose) (HPC)
[20] = dose: 200.0 mg/kg/injection, schedule: Q01DX009 (ip), vehicle: Klucel (hydroxypropylcellulose) (HPC)
[21] = dose: 100.0 mg/kg/injection, schedule: Q01DX001 (ip), vehicle: saline
[22] = dose: 200.0 mg/kg/injection, schedule: Q01DX001 (ip), vehicle: saline
[23] = dose: 400.0 mg/kg/injection, schedule: Q01DX001 (ip), vehicle: saline

Measured: T/C

CCCCCCCCCCCCCCCCOc1ccc(C(SC)=[N+]2CCCCC2)cc1OC
inactive: [1] 98 % of control | [2] 102 % of control | [3] 102 % of control

NC(N)=NN=C(c1ccccc1)c1ccccc1
inactive: dose: 15.0 mg/kg/injection, schedule: Q01DX Z (ip), vehicle: other 101 % of control | dose: 30.0 mg/kg/injection, schedule: Q01DX Z (ip), vehicle: other 98 % of control | dose: 60.0 mg/kg/injection, schedule: Q01DX Z (ip), vehicle: other 106 % of control

Cc1cc(C(=O)c2ccccn2)c2cccc(C(F)(F)F)c2n1
inactive: dose: 50.0 mg/kg/injection, schedule: Q01DX009 (ip), vehicle: saline with Tween-80 94 % of control | [4] 102 % of control | [5] 92 % of control | [6] 100 % of control | [7] 88 % of control

O=C(Nc1ccc(Cl)cc1)c1cccnc1
inactive: [4] 95 % of control | [5] 96 % of control | [6] 97 % of control | [7] 98 % of control | [8] 91 % of control

COc1ccc2nc(C)c(COC(C)=O)c(Cl)c2c1
inactive: [9] 102 % of control | [10] 100 % of control | [11] 92 % of control | [12] 96 % of control | dose: 400.0 mg/kg/injection, schedule: Q01DX009 (ip), vehicle: saline 97 % of control | [13] 112 % of control

CCC1(OC(C)=O)C(=O)OCc2c1cc1n(c2=O)Cc2cc3ccccc3nc2-1 (centres undefined)
inactive: dose: 0.13 mg/kg/injection, schedule: Q01DX009 (ip), vehicle: carboxymethylcellulose (CMC) 96 % of control | dose: 0.13 mg/kg/injection, schedule: Q01DX Z (ip), vehicle: water 93 % of control | dose: 0.22 mg/kg/injection, schedule: Q01DX Z (ip), vehicle: water 116 % of control | dose: 0.25 mg/kg/injection, schedule: Q01DX009 (ip), vehicle: carboxymethylcellulose (CMC) 96 % of control | dose: 0.36 mg/kg/injection, schedule: Q01DX Z (ip), vehicle: water 108 % of control | dose: 0.5 mg/kg/injection, schedule: Q01DX009 (ip), vehicle: carboxymethylcellulose (CMC) 91 % of control | dose: 1.0 mg/kg/injection, schedule: Q01DX009 (ip), vehicle: carboxymethylcellulose (CMC) 104 % of control | dose: 1.0 mg/kg/injection, schedule: Q01DX Z (ip), vehicle: water 114 % of control | dose: 2.0 mg/kg/injection, schedule: Q01DX009 (ip), vehicle: carboxymethylcellulose (CMC) 91 % of control

CCOC(=O)C(Cc1ccccc1Cl)(NC(C)=O)C(=O)OCC
inactive: [4] 93 % of control | [6] 100 % of control | [14] 104 % of control

O=C(NCCN1CCCCC1)C(O)(c1ccccc1)C1CCCCC1 (centres undefined)
inactive: dose: 75.0 mg/kg/injection, schedule: Q01DX001 (ip), vehicle: other 97 % of control | dose: 150.0 mg/kg/injection, schedule: Q01DX001 (ip), vehicle: other 100 % of control

Cc1ccc(N(C)CC#CCOc2ccc(Br)cc2)cc1
inactive: dose: 100.0 mg/kg/injection, schedule: Q04DX002 (ip), vehicle: Klucel (hydroxypropylcellulose) (HPC) 105 % of control | dose: 200.0 mg/kg/injection, schedule: Q04DX002 (ip), vehicle: Klucel (hydroxypropylcellulose) (HPC) 99 % of control | dose: 400.0 mg/kg/injection, schedule: Q04DX002 (ip), vehicle: Klucel (hydroxypropylcellulose) (HPC) 99 % of control

O=c1[nH]c(=S)[nH]cc1Cc1cccc2ccccc12
inactive: [15] 104 % of control | [16] 94 % of control | [17] 92 % of control

O=c1[nH]cnc2cc(Cl)ccc12
inactive: [18] 91 % of control | [19] 102 % of control | [20] 100 % of control

O=C(Nc1ccccc1C(F)(F)F)OCCOc1ccc([N+](=O)[O-])cc1
inactive: [1] 89 % of control | [2] 87 % of control | [3] 92 % of control

O=C(NC1CCCC2C(NC(=O)c3ccccc3)CCCC12)c1ccccc1 (centres undefined)
inactive: [21] 91 % of control | [4] 89 % of control | [10] 92 % of control | [22] 91 % of control | [6] 89 % of control | [12] 91 % of control | [23] 94 % of control | [14] 95 % of control | [13] 86 % of control

Cc1ccc(S(=O)(=O)c2ccc(S(=O)(=O)c3ccccc3)cc2)cc1
inactive: [21] 95 % of control and 92 % of control | [22] 97 % of control | [23] 105 % of control and 91 % of control

O=P(CCO)(c1ccccc1)c1ccccc1
inactive: [5] 112 % of control | [7] 101 % of control

CCOC(=O)c1ccc(NC(=O)Nc2cccc3c(O)cccc23)cc1
inactive: dose: 50.0 mg/kg/injection, schedule: Q04DX003 (ip), vehicle: saline with Tween-80 102 % of control | dose: 100.0 mg/kg/injection, schedule: Q01DX001 (ip), vehicle: saline with Tween-80 86 % of control | [4] 86 % of control | dose: 100.0 mg/kg/injection, schedule: Q04DX002 (ip), vehicle: saline with Tween-80 97 % of control and 106 % of control | [5] 94 % of control | dose: 200.0 mg/kg/injection, schedule: Q01DX001 (ip), vehicle: saline with Tween-80 86 % of control | [6] 89 % of control | dose: 200.0 mg/kg/injection, schedule: Q04DX002 (ip), vehicle: saline with Tween-80 97 % of control and 91 % of control | [7] 93 % of control and 87 % of control | [14] 89 % of control | dose: 400.0 mg/kg/injection, schedule: Q04DX002 (ip), vehicle: saline with Tween-80 89 % of control and 91 % of control | [8] 97 % of control

Cc1nc2ccc(N=Cc3ccc(N(CCCl)CCCl)cc3)cc2[nH]1
inactive: [1] 102 % of control | [2] 98 % of control | [3] 104 % of control

CC1(COC(=O)Nc2cccc3ccccc23)CC2C=CC1C2 (centres undefined)
inactive: dose: 75.0 mg/kg/injection, schedule: Q01DX001 (ip), vehicle: saline with Tween-80 96 % of control | dose: 150.0 mg/kg/injection, schedule: Q01DX001 (ip), vehicle: saline with Tween-80 91 % of control | dose: 300.0 mg/kg/injection, schedule: Q01DX001 (ip), vehicle: saline with Tween-80 88 % of control

O=C(Nc1ccc(Br)cc1C(F)(F)F)C(F)(F)F
inactive: dose: 50.0 mg/kg/injection, schedule: Q04DX003 (ip), vehicle: Klucel (hydroxypropylcellulose) (HPC) 102 % of control | [17] 100 % of control | [1] 104 % of control | dose: 200.0 mg/kg/injection, schedule: Q01DX001 (ip), vehicle: Klucel (hydroxypropylcellulose) (HPC) 94 % of control | [2] 112 % of control | dose: 400.0 mg/kg/injection, schedule: Q01DX001 (ip), vehicle: Klucel (hydroxypropylcellulose) (HPC) 97 % of control | [3] 105 % of control

Cc1cccc(NC#N)n1
inactive: [15] 100 % of control | [16] 98 % of control | [17] 98 % of control and 101 % of control

O=C1NCCS1
inactive: dose: 50.0 mg/kg/injection, schedule: Q01DX009 (ip), vehicle: saline 107 % of control | [4] 107 % of control | [9] 92 % of control | dose: 100.0 mg/kg/injection, schedule: Q04DX003 (ip), vehicle: saline sonified 102 % of control | [6] 107 % of control | [11] 115 % of control | dose: 200.0 mg/kg/injection, schedule: Q04DX003 (ip), vehicle: saline sonified 100 % of control | [14] 96 % of control | dose: 400.0 mg/kg/injection, schedule: Q04DX003 (ip), vehicle: saline sonified 106 % of control

COc1cc(Cl)ccc1NC(=O)Oc1ccccc1C(N)=O
inactive: dose: 6.25 mg/kg/injection, schedule: Q01DX009 (ip), vehicle: Klucel (hydroxypropylcellulose) (HPC) 102 % of control | dose: 12.5 mg/kg/injection, schedule: Q01DX009 (ip), vehicle: Klucel (hydroxypropylcellulose) (HPC) 91 % of control | dose: 25.0 mg/kg/injection, schedule: Q01DX009 (ip), vehicle: Klucel (hydroxypropylcellulose) (HPC) 97 % of control | [18] 91 % of control | [19] 100 % of control

Clc1ccc(/C=N\Nc2c3ccccc3nc3ccccc23)cc1Cl
inactive: [21] 97 % of control | [22] 94 % of control | [23] 111 % of control

C/C(CC(C)(C)c1ccccc1)=N/NC(N)=O
inactive: [19] 104 % of control | [20] 98 % of control
